According to patent US6861448B2, “NAD synthetase inhibitors and uses thereof” (priority 1998, dated 2005):

Each compound was assayed against NAD synthetase (Bacillus subtilis, UniProt P08164) (assay: NAD synthetase coupled enzyme assay). Conditions: not given.
Format: biochemical
Description: This Example illustrates the NAD synthetase enzyme inhibiting activity of some compounds of the present invention. [drawing 48] The coupled assay—production of NAD was monitored through conversion to NADH by alcohol dehydrogenase. [NADH] was monitored by 2 parallel methods: the change in absorbance at 340 nm, and fluorescence at 460 nm (excitation 320 nm). […] Controls were included for determining inhibitor background, precipitation, and ADH inhibition.

NAD synthetase, sequence (P08164 whole entry): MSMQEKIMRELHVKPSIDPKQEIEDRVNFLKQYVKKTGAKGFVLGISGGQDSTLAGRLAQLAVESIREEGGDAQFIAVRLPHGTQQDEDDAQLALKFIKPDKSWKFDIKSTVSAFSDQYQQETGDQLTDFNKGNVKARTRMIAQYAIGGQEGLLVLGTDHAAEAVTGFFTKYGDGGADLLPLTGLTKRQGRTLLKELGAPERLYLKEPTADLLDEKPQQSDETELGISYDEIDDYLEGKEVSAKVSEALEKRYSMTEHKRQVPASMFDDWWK

| SMILES | IC50 [µM] |
| --- | --- |
| N=C(N)N[C@H](COCCCCCCCCOc1ccc(OCc2ccccc2)cc1)Cc1ccccc1 [Compound 1679] | 10.4 |

Same assay, conditions: NAD synthetase 2.0 μg/mL; 0.1 mM NaAD; 0.2 mM ATP; pH 8.5

| SMILES | IC50 [µM] |
| --- | --- |
| C[N+](C)(C)C(Cc1ccccc1)C(=O)NCCCCCCCCOc1ccc(OC(=O)c2cc(F)cc(F)c2)cc1 (stereo not shown) [Compound 1614] | 23.1 |
| C[N+](C)(C)c1ccc(CC(=O)OCCCCCCCOC(=O)c2ccc(OCc3ccccc3)cc2)cc1 [Compound 1359] | 42.2 |
| C[N+](C)(C)C(Cc1ccccc1)C(=O)OCCCCCCCCOc1ccc(OC(=O)c2ccc(-n3ccnc3)cc2)cc1 (stereo not shown) [Compound 1486] | 37.8 |
| C[n+]1cccc(C(=O)NCCCCCCCCOc2ccc(OC(=O)c3cc(Cl)ccc3Cl)cc2)c1 [Compound 1663] | 18.4 |
| COc1ccc(COc2ccc(OCCCCCCCCOC(=O)C(Cc3ccccc3)[N+](C)(C)C)cc2)cc1 (stereo not shown) [Compound 1389] | 45.5 |
| CC(C)(C)OC(=O)C(Cc1cn(CCCCCCCCOc2ccc(OCc3ccccc3)cc2)c2ccccc12)[N+](C)(C)C (stereo not shown) [Compound 1494] | 12.5 |
| C[N+](C)(C)c1ccc(CC(=O)OCCCCCCCCn2ccc3cccc(OCc4ccccc4)c32)cc1 [Compound 1127] | 23 |
| COC(=O)c1ccc(OCCCCCCCCOC(=O)Cc2ccc([N+](C)(C)C)cc2)cc1OCc1ccccc1 [Compound 1186] | 46.1 |
| C[N+](C)(C)C(Cc1ccccc1)C(=O)OCCCCCCCCOc1ccc(OCc2ccccc2)cc1 (stereo not shown) [Compound 1338] | 23 |
| C[N+]1([C@@H](Cc2ccccc2)C(=O)OCCCCCCCCOc2ccc(OCc3ccccc3)cc2)CCCCC1 [Compound 1337] | 20.3 |
| CCC[N+]1([C@@H](Cc2ccccc2)C(=O)NCCCCCCCCOc2ccc(OCc3ccccc3)cc2)CCCC1 [Compound 1502] | 35.6 |
| C[N+](C)(C)[C@@H](Cc1ccccc1)C(=O)OCCCCCCCCOc1ccc2oc(-c3ccccc3)cc(=O)c2c1 [Compound 1371] | 19.1 |
| C[n+]1cccc(C(=O)NCCCCCCCCOc2ccc3c(c2)C(=O)CC(c2ccccc2)O3)c1 (stereo not shown) [Compound 1448] | 30.7 |
| C[N+]1([C@@H](Cc2ccccc2)C(=O)NCCCCCCCCOc2ccc(OCc3ccccc3)cc2)CCCC1 [Compound 1495] | 33.4 |
| CC(C)Oc1ccc(C(=O)Oc2ccc(OCCCCCCCCOC(=O)C(Cc3ccccc3)[N+](C)(C)C)cc2)cc1 (stereo not shown) [Compound 1477] | 14 |
| CC(=O)Oc1ccc(C(=O)Oc2ccc(OCCCCCCCCNC(=O)C(Cc3ccccc3)[N+](C)(C)C)cc2)cc1 (stereo not shown) [Compound 1599] | 44 |
| CC[N+]1([C@@H](Cc2ccccc2)C(=O)NCCCCCCCCOc2ccc(OCc3ccccc3)cc2)CCCC1 [Compound 1501] | 38.2 |
| C[N+](C)(C)C(Cc1ccccc1)C(=O)NCCCCCCCCOc1ccc(OC(=O)c2cc(Cl)cc(Cl)c2Cl)cc1 (stereo not shown) [Compound 1615] | 22.3 |
| C[N+](C)(C)C(Cc1ccccc1)C(=O)NCCCCCCCCOc1ccc(OC(=O)c2cccc(Cl)c2Cl)cc1 (stereo not shown) [Compound 1603] | 34.9 |
| C[N+](C)(C)C(Cc1ccc([N+](=O)[O-])cc1)C(=O)OCCCCCCCCOc1ccc(OCc2ccccc2)cc1 (stereo not shown) [Compound 1405] | 18.8 |
| N=C(N)N[C@@H](Cc1ccccc1)C(=O)NCCCCCCCCOc1ccc(OCc2ccccc2)cc1 [Compound 1681] | 12.9 |
| C[N+](C)(C)C(Cc1ccccc1)C(=O)NCCCCCCCCOc1ccc(OC(=O)c2c(F)cc(F)cc2F)cc1 (stereo not shown) [Compound 1620] | 21.9 |

| SMILES | IC50 [µM] |
| --- | --- |
| C[n+]1cccc(C(=O)NCCCCCCCCOc2ccc(OC(=O)c3cc(F)c(F)c(F)c3)cc2)c1 [Compound 1678] | 36.5 |
| C[N+](C)(C)C(Cc1ccccc1)C(=O)NCCCCCCCCOc1ccc(OC(=O)c2ccc(F)cc2F)cc1 (stereo not shown) [Compound 1610] | 30.4 |
| C[N+](C)(C)C(Cc1ccccc1)C(=O)OCCCCCCCCOc1ccc(OC(=O)c2ccc(S(N)(=O)=O)cc2)cc1 (stereo not shown) [Compound 1485] | 34.8 |
| C[n+]1cccc(C(=O)NCCCCCCCCOc2ccc(OC(=O)c3ccc(Cl)c(Cl)c3)cc2)c1 [Compound 1665] | 19.6 |
| C[N+](C)(C)c1ccc(CC(=O)OCCCCCCCCOc2ccc(OCc3ccccc3Cl)cc2)cc1 [Compound 1396] | 15.1 |
| C[N+](C)(C)C(Cc1ccccc1)C(=O)NCCCCCCCCOc1ccc(OC(=O)c2cc(Cl)ccc2Cl)cc1 (stereo not shown) [Compound 1605] | 21 |
| CC(=O)Oc1ccc(C(=O)Oc2ccc(OCCCCCCCCOC(=O)C(Cc3ccccc3)[N+](C)(C)C)cc2)cc1 (stereo not shown) [Compound 1475] | 22.6 |
| C[N+](C)(C)c1ccc(CC(=O)OCCCCCCCCCCCOc2ccc(OCc3ccccc3)cc2)cc1 [Compound 1323] | 48.2 |
| C[N+](C)(C1CCOCC1)[C@@H](Cc1ccccc1)C(=O)OCCCCCCCCOc1ccc(OCc2ccccc2)cc1 [Compound 1358] | 46.6 |
| C[N+](C)(C)c1ccc(CC(=O)NCCCCCCCCOc2ccc(OC(=O)c3cc(Cl)cc(Cl)c3)cc2)cc1 [Compound 1637] | 23.3 |
| C[N+](C)(C)C(Cc1ccccc1)C(=O)OCCCCCCCCOc1ccc2c(c1)C(=O)CC(c1ccccc1)O2 (mixture of isomers) [Compound 1370] | 16.9 |
| C[N+](C)(C)C(Cc1ccccc1)C(=O)NCCCCCCCCOc1ccc(OC(=O)c2ccccc2F)cc1 (stereo not shown) [Compound 1596] | 28 |
| C[N+](C)(C)c1ccc(CC(=O)NCCCCCCCCOc2ccc(OC(=O)c3ccc(Cl)cc3Cl)cc2)cc1 [Compound 1633] | 20.4 |
| C[n+]1cccc(C(=O)NCCCCCCCCOc2ccc(OC(=O)c3ccc(Cl)cc3)cc2)c1 [Compound 1653] | 19.5 |
| C[N+](C)(C)c1ccc(CC(=O)NCCCCCCCCOc2ccc(OC(=O)c3cccc(Cl)c3Cl)cc2)cc1 [Compound 1632] | 18.5 |
| C[N+](C)(C)C(Cc1ccccc1)C(=O)NCCCCCCCCOc1ccc(OC(=O)c2ccc(F)c(F)c2)cc1 (stereo not shown) [Compound 1613] | 19.1 |
| CC(C)Oc1ccc(C(=O)Oc2ccc(OCCCCCCCCNC(=O)C(Cc3ccccc3)[N+](C)(C)C)cc2)cc1 (stereo not shown) [Compound 1600] | 28.7 |
| C[N+](C)(C)c1ccc(CC(=O)NCCCCCCCCOc2ccc(OC(=O)c3c(Cl)cccc3Cl)cc2)cc1 [Compound 1635] | 35.1 |
| C[N+]1([C@@H](Cc2ccccc2)C(=O)OCCCCCCCCOc2ccc(OCc3ccccc3)cc2)CCCC1 [Compound 1336] | 19.4 |
| C[N+](C)(C)c1ccc(CC(=O)OCCCCCCCCOc2ccc(OCc3cccc(Cl)c3)cc2)cc1 [Compound 1397] | 16.9 |
| C[N+](C)(C)c1ccc(CC(=O)NCCCCCCCCOc2ccc(OCc3cccc(Cl)c3)cc2)cc1 [Compound 1421] | 34.8 |
| C[N+](C)(C)C(Cc1ccccc1)C(=O)OCCCCCCCCOc1ccc(OC(=O)c2ccccc2)cc1 (stereo not shown) [Compound 1431] | 18.2 |

| SMILES | IC50 [µM] |
| --- | --- |
| C[N+](C)(C)C(Cc1ccccc1)C(=O)NCCCCCCCCOc1ccc(OC(=O)c2cccc(F)c2F)cc1 (stereo not shown) [Compound 1609] | 20.7 |
| C[N+](C)(C)C(Cc1ccccc1)C(=O)NCCCCCCCCOc1ccc(OC(=O)c2cccc(F)c2)cc1 (stereo not shown) [Compound 1597] | 21.3 |
| C[N+](C)(C)[C@@H](Cc1c[nH]c2ccccc12)C(=O)OCCCCCCCCOc1ccc(OCc2ccccc2)cc1 [Compound 1491] | 19.9 |
| C[N+](C)(C)C(Cc1ccccc1)C(=O)NCCCCCCCCOc1ccc(OC(=O)c2cc(F)c(F)cc2F)cc1 (stereo not shown) [Compound 1619] | 22.3 |
| C[N+](C)(C)C(Cc1ccccc1)C(=O)NCCCCCCCCOc1ccc(OC(=O)c2cc(F)ccc2F)cc1 (stereo not shown) [Compound 1611] | 23.3 |
| N=C(N)N[C@@H](Cc1ccccc1)C(=O)NCCCCCCCCOc1ccc(OCc2ccccc2)cc1 [Compound 1682] | 17.6 |
| C[N+](C)(C)c1ccc(CC(=O)NCCCCCCCCOc2ccc(OC(=O)c3c(Cl)cc(Cl)cc3Cl)cc2)cc1 [Compound 1645] | 18.1 |
| CC(=O)Nc1ccc(C(=O)Oc2ccc(OCCCCCCCCOC(=O)C(Cc3ccccc3)[N+](C)(C)C)cc2)cc1 (stereo not shown) [Compound 1482] | 26.2 |
| C[N+](C)(C)c1ccc(CC(=O)NCCCCCCCCOc2ccc(OC(=O)c3cc(F)c(F)c(F)c3)cc2)cc1 [Compound 1650] | > 50 |
| C[N+](C)(C)C(Cc1ccccc1)C(=O)NCCCCCCCCOc1ccc(OC(=O)c2cc(Cl)cc(Cl)c2)cc1 (stereo not shown) [Compound 1608] | 26.3 |
| CSc1ccc(C(=O)Oc2ccc(OCCCCCCCCOC(=O)C(Cc3ccccc3)[N+](C)(C)C)cc2)cc1 (stereo not shown) [Compound 1478] | 15.8 |
| C[N+](C)(C)c1ccc(CC(=O)NCCCCCCCCOc2ccc(OC(=O)c3cccc(Cl)c3)cc2)cc1 [Compound 1623] | 33.9 |
| C[N+](C)(C)C(Cc1ccccc1)C(=O)NCCCCCCCCOc1ccc(OC(=O)c2cc(F)c(F)c(F)c2)cc1 (stereo not shown) [Compound 1621] | 25.5 |
| C[N+](C)(C)C(Cc1ccccc1)C(=O)NCCCCCCCCOc1ccc(OC(=O)c2c(Cl)cccc2Cl)cc1 (stereo not shown) [Compound 1606] | 39.1 |
| CC(C)Oc1ccc(C(=O)Oc2ccc(OCCCCCCCCNC(=O)Cc3ccc([N+](C)(C)C)cc3)cc2)cc1 [Compound 1629] | 21.1 |
| C[N+](C)(C)c1ccc(CC(=O)NCCCCCCCCOc2ccc(OC(=O)c3ccccc3Cl)cc2)cc1 [Compound 1622] | 34.2 |
| C[N+](C)(C)c1ccc(CC(=O)OCCCCCCCCOc2cccc(OCc3ccccc3)c2)cc1 [Compound 1169] | 36.2 |
| COc1cccc(COc2ccc(OCCCCCCCCOC(=O)C(Cc3ccccc3)[N+](C)(C)C)cc2)c1 (stereo not shown) [Compound 1388] | 14.5 |
| C[N+](C)(C)c1ccc(CC(=O)NCCCCCCCCOc2ccc(OC(=O)c3ccc(Cl)cc3)cc2)cc1 [Compound 1624] | 31.2 |
| CN(C)[C@@H](Cc1ccccc1)C[N+](C)(C)CCCCCCCCOc1ccc(OCc2ccccc2)cc1 [Compound 1498] | 39.4 |
| CCC[N+]1([C@@H](Cc2ccccc2)C(=O)OCCCCCCCCOc2ccc(OCc3ccccc3)cc2)CCCC1 [Compound 1443] | 27.9 |
| CN(CCCCCCCCOc1ccc(OCc2ccccc2)cc1)C[C@H](Cc1ccccc1)[N+](C)(C)C [Compound 1499] | 26.8 |
